Here are results for 18 compounds from US5189171A, “Antipsychotic benzodioxan derivatives” (American Home Products Corporation, priority 1992, dated 1993).

One experiment concerns 5-HT1A receptor. The note with it: cited from earlier work.
The next experiment deals with T1, dopamine D2 receptor (Rattus norvegicus, UniProt P61169).
T1 construct: from tissue; host or cells: homogenized limbic brain tissue
The experiment in a line: Affinity for the dopamine D2 receptor, 3H-spiroperidol binding in homogenized limbic brain tissue. The note with it: for IC50: read-out: Receptor Affinities D2 (IC50 (nM)); for inhibition at 1 µM: read-out: Receptor Affinities D2 (% @ ( ) μM). Here is the method:
Affinity for the dopamine D2 receptor was established by the standard experimental test procedure of Fields, et al., Brain Res., 136, 578 (1977) and Yamamura et al., eds., Neurotransmitter Receptor Binding, Raven Press, New York (1978) wherein homogenized limbic brain tissue is incubated with ^3 H-spiroperidol and various concentrations of test compound, filtered and washed and shaken with Hydrofluor scintillation cocktail (National Diagnostics) and counted in a Packard 460 CD scintillation counter.

A further experiment has as its system mouse locomotor activity. The experiment in a line: Reduction of mouse locomotor activity (hypolocomotion; Martin and Bendensky). It is filed as in vivo, mouse (male, CF-1). The note with it: horizontal activity counts 10 to 20 minutes after dosing; for ED50: Mus musculus, ip, 20 min. The protocol: The antipsychotic activity of the compounds of the invention was further established by a determination of the compounds' ability to reduce mouse locomotor activity according to the method of Martin and Bendensky, J. Pharmacol. Exp. Therap. 229: 706-711, 1984, in which mice (male, CF-1, Charles River, 20-30 g) were injected with vehicle or various doses of each drug and locomotor activity was measured for 30 minutes using automated infrared activity monitors (Omnitech-8×8 inch open field) located in a darkened room. ED50's were calculated from the horizontal activity counts collected from 10 to 20 minutes after dosing using a nonlinear regression analysis with inverse prediction.

The target in experiment [1] is T2, serotonin 5-HT1A receptor (Rattus norvegicus, UniProt P19327).
T2 construct: following the procedure of Hall et al., J. Neurochem; 44, 1685 (1985); from tissue
T2 sequence (P19327 1-422): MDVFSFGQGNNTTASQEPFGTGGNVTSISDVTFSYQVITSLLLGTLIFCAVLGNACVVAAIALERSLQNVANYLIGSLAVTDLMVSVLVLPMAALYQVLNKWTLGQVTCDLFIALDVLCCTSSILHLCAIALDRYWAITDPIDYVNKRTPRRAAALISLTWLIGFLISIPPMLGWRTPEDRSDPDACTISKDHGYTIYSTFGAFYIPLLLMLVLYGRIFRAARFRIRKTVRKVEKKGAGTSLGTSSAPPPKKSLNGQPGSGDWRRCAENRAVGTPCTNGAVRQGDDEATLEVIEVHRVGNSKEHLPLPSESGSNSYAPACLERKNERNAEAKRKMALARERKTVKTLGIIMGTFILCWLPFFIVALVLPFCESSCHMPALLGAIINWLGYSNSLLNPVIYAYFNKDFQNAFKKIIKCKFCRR
The experiment in a line: Affinity for the serotonin 5-HT1A receptor, displacement of [3H]8-OHDPAT (Hall et al.). The note with it: [3H]8-OHDPAT displacement; for IC50: read-out: Receptor Affinities 5-HT1A (IC50 (nM)); for inhibition at 0.1 µM: read-out: Receptor Affinities 5-HT1A (% @ ( ) μM). The experiment is classed as binding. An excerpt:
Affinity for the serotonin 5-HT1A receptor was established by testing the claimed compound's ability to displace [^3 H]8-OHDPAT (dipropylaminotetralin) from the 5-HT1A serotonin receptor following the procedure of Hall et al., J. Neurochem. 44, 1685 (1985). […] The anxiolytic activity of buspirone is believed to be, at least partially, due to its 5-HT1A receptor affinity (Vander Maclen et al., Eur. J. Pharmacol. 1986, 129 (1-2) 133-[…]).
(Loss of bound radioactivity is the signal in a displacement assay; it reports binding, not function.)

Experiment [2] deals with dopamine synthesis (dopa accumulation; dopamine autoreceptor). The experiment in a line: Inhibition of dopa accumulation in GBL-treated rats (method of Walters and Roth). It is filed as in vivo, rat (male, Sprague-Dawley). The note with it: rat; for Dopa Accumulation (% inhib. @ 10 mg/kg, sc), limbic (L): limbic (L) brain tissue; for Dopa Accumulation (% inhib. @ 10 mg/kg, sc), striatal (S): striatal (S) brain tissue; for Dopa Accumulation (% inhib. @ 10 mg/kg, sc), tissue not indicated: (L)/(S) mark not given. Here is the method:
The effect of the compounds of the invention on the synthesis of dopamine was established by the method of Walters and Roth, Naunyn-Schmiedeberg's Arch. Pharmacol. 296:5-14, 1976, in which rats (male, Sprague-Dawley, Charles River, 200-350 g) were administered vehicle or test drug ten minutes prior to the administration of gamma butyrolactone (GBL; 750 mg/kg, ip to inhibit dopaminergic impulse flow) and 20 minutes prior to NSD-1015 (100 mg/kg, ip to prevent the conversion of dopa to dopamine). Thirty minutes after NSD-1015 all rats were humanely euthenized and the nucleus accumbens and the straitum were removed for analysis. Following perchloric acid extraction of the tissue, the extracts were placed over alumina columns to collect and concentrate dopa and other catechols. This eluate was then subjected to HPLC analysis using electrochemical detection to quantify the levels of dopa present. Dopamine autoreceptor agonists, under the conditions used above, inhibit dopa accumulation.

Several values for one entry are separate records, joined by “and”; a condition that tells them apart may be missing. Equal entries are not always repeated.

T1 sequence (P61169 whole entry): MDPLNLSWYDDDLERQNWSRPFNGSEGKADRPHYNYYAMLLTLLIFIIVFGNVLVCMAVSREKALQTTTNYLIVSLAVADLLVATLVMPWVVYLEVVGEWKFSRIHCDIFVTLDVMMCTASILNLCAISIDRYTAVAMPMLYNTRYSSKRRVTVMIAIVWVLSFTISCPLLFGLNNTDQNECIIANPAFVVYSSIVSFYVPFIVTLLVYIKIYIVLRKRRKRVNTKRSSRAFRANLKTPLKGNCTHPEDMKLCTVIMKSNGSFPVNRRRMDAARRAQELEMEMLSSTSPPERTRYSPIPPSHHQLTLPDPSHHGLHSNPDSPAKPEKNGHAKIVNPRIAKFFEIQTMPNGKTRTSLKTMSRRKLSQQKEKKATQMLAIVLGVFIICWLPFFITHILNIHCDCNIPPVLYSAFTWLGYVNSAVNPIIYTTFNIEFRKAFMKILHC

Turning to `O=C1CC2(CCCC2)CC(=O)N1CCCCNCC1COc2ccccc2O1` (single isomer, unassigned; (-)) [(-)-MDL 72832], the “binding at the 5-HT1A receptor site relative to the dextrorotary isomer” value with 5-HT1A receptor ((-)-isomer vs dextrorotary isomer, Fozard et al. 1987) was 32 times.

As usually defined, the IC50 is the concentration that gives 50% inhibition. By ED50 is commonly meant the dose that gives a 50% effect, or the effect in half of the subjects. For `O=c1ccc2ccc(OCCCNCC3COc4ccccc4O3)cc2o1` (stereo not drawn) [Example 1, 7-[3-[[(2,3-Dihydro-1,4-benzodioxin-2-yl)methyl]amino]propoxy]-2H-1-benzopyran-2-one], the half-inhibitory concentration (IC50) on dopamine D2 receptor is 112 nM. In addition, the ED50 in the experiment on mouse locomotor activity worked out at 0.58 mg/kg. Also, the IC50 in experiment [1] came out at 0.5 nM. In experiment [2], the “Dopa Accumulation (% inhib. @ 10 mg/kg, sc), limbic (L)” value is reported as 39% and the “Dopa Accumulation (% inhib. @ 10 mg/kg, sc), striatal (S)” value stood at 1%.

With `COc1cccc2c1OCC(CNCCCOc1ccc3ccc(=O)oc3c1)O2` (stereo not drawn) [Example 2, 7-[3-[[(2,3-Dihydro-5-methoxy-1,4-benzodioxin-2-yl)methyl]amino]propoxy]-2H-1-benzopyran-2-one], in experiment [2], the “Dopa Accumulation (% inhib. @ 10 mg/kg, sc), limbic (L)” value is listed as -12%.

As for `O=c1ccc2ccc(OCCCNCC3COc4cc(OCc5ccccc5)ccc4O3)cc2o1` (stereo not drawn) [Example 4, 7-[3-[[(2,3-Dihydro-6-phenylmethoxy-1,4-benzodioxin-2-yl)methyl]amino]propoxy]-2H-1-benzopyran-2-one], the “Dopa Accumulation (% inhib. @ 10 mg/kg, sc), limbic (L)” value in experiment [2] is recorded as 20%.

Regarding `O=c1ccc2ccc(OCCCNCC3COc4cc(O)ccc4O3)cc2o1` (stereo not drawn) [Example 5, 7-[3-[[(2,3-Dihydro-6-hydroxy-1,4-benzodioxin-2-yl)methyl]amino]propoxy]-2H-1-benzopyran-2-one], the IC50 at dopamine D2 receptor was 337 nM and 730 nM. Besides, in the experiment with mouse locomotor activity, it took a dose of 1.62 mg/kg to reach the 50% effect level (ED50) and the “Hypolocomotion (ED50 mg/kg, ip)” value was 2.04 mg/kg. In addition, the IC50 in experiment [1] was 112 nM. Moreover, in experiment [2], the “Dopa Accumulation (% inhib. @ 10 mg/kg, sc), limbic (L)” value is 60% and the “Dopa Accumulation (% inhib. @ 10 mg/kg, sc), striatal (S)” value was 18%.

As for `O=c1ccc2ccc(OCCCNCC3COc4ccc(O)cc4O3)cc2o1` (stereo not drawn) [Example 6, 7-[3-[[(2,3-Dihydro-7-hydroxy-1,4-benzodioxin-2-yl)methyl]amino]propoxy]-2H-1-benzopyran-2-one], the inhibition at 1 µM on dopamine D2 receptor was found to be 100%. In the experiment with mouse locomotor activity, this compound had a median effective dose (ED50) of 0.19 mg/kg. Further, in experiment [1], the IC50 turned out to be 6 nM. In addition, in experiment [2], the “Dopa Accumulation (% inhib. @ 10 mg/kg, sc), limbic (L)” value is listed as 76% and the “Dopa Accumulation (% inhib. @ 10 mg/kg, sc), striatal (S)” value amounted to 73%.

On to `O=c1ccc2c(OCCCNCC3COc4ccccc4O3)cccc2[nH]1` (stereo not drawn) [Example 7, 5-[3-[[(2,3-Dihydro-1,4-benzodioxin-2-yl)methyl]amino]propoxy]-2(1H)-quinolinone], for which, in experiment [2], the “Dopa Accumulation (% inhib. @ 10 mg/kg, sc), limbic (L)” value worked out at 1.5% and the “Dopa Accumulation (% inhib. @ 10 mg/kg, sc), striatal (S)” value worked out at 51.3%.

For the compound `O=c1ccc2ccc(OCCCNC[C@H]3COc4cc(O)ccc4O3)cc2o1` [Example 8, (S)-7-[3-[[(2,3-Dihydro-6-hydroxy-1,4-benzodioxin-2-yl)methyl]amino]propoxy]-2H-1-benzopyran-2-one], in the experiment with mouse locomotor activity, the ED50 was found to be 3.5 mg/kg. Moreover, in experiment [1], the IC50 is 104 nM. Also, the “Dopa Accumulation (% inhib. @ 10 mg/kg, sc), limbic (L)” value in experiment [2] was 50%.

`COc1ccc2c(c1)OC(CNCCCOc1ccc3ccc(=O)oc3c1)CO2` (stereo not drawn) [Example 9, 7-[3-[[(2,3-Dihydro-7-methoxy-1,4-benzodioxin-2-yl)methyl]amino]propoxy]-2H-1-benzopyran-2-one]: at dopamine D2 receptor, the inhibition at 1 µM was found to be 66%. Also, the “Dopa Accumulation (% inhib. @ 10 mg/kg, sc), limbic (L)” value in experiment [2] is 21.7%.

As to `O=c1ccc2ccc(OCCCNC[C@@H]3COc4cc(O)ccc4O3)cc2o1` [Example 10, (R)-7-[3-[[(2,3-Dihydro-6-hydroxy-1,4-benzodioxin-2-yl)methyl]amino]propoxy]-2H-1-benzopyran-2-one], the “Dopa Accumulation (% inhib. @ 10 mg/kg, sc), tissue not indicated” value in experiment [2] came out at 24.0%.

`CC(=O)Oc1ccc2c(c1)OCC(CNCCCOc1ccc3ccc(=O)oc3c1)O2` (stereo not drawn) [Example 11, 7-[3-[[(2,3-Dihydro-6-acetoxy-1,4-benzodioxin-2-yl)methyl]amino]propoxy]-2H-1-benzopyran-2-one]: the inhibition at 0.1 µM in experiment [1] was determined as 78%. Besides, the “Dopa Accumulation (% inhib. @ 10 mg/kg, sc), limbic (L)” value in experiment [2] turned out to be 37.7%.

On to `CCN(CCCOc1ccc2ccc(=O)oc2c1)CC1COc2ccc(O)cc2O1` (stereo not drawn) [Example 12, 7-[3-[[(2,3-Dihydro-7-hydroxy-1,4-benzodioxin-2-yl)methyl]ethylamino]propoxy]-2H-1-benzopyran-2-one], for which the 50% effect level in the experiment with mouse locomotor activity (ED50) was put at a dose of 1.6 mg/kg. Also, the inhibition at 0.1 µM in experiment [1] came out at 81%. Further, the “Dopa Accumulation (% inhib. @ 10 mg/kg, sc), limbic (L)” value in experiment [2] is 61.6%.

Consider `COc1ccc2c(c1)OC(CN(C)CCCOc1ccc3ccc(=O)oc3c1)CO2` (stereo not drawn) [Example 14], for which the “Dopa Accumulation (% inhib. @ 10 mg/kg, sc), tissue not indicated” value in experiment [2] was found to be 19.5%.

Regarding `CN(CCCOc1ccc2ccc(=O)oc2c1)CC1COc2cc(O)ccc2O1` (stereo not drawn) [Example 15, 7-[3-[[(2,3-Dihydro-6-hydroxy-1,4-benzodioxin-2-yl)methyl]methylamino]propoxy]-2H-1-benzopyran-2-one], in experiment [1], the inhibition at 0.1 µM worked out at 23%. Also, the “Dopa Accumulation (% inhib. @ 10 mg/kg, sc), tissue not indicated” value in experiment [2] is listed as 9.2%.

For `COc1cc(OC)c2c(c1)OCC(CNCCCOc1ccc3ccc(=O)oc3c1)O2` (stereo not drawn) [Example 19], in experiment [2], the “Dopa Accumulation (% inhib. @ 10 mg/kg, sc), limbic (L)” value is on record as 23%.

As to `O=c1ccc2ccc(OCCCNC[C@H]3COc4ccc(O)cc4O3)cc2o1` [Example 20, (S)-7-[3-[[(2,3-Dihydro-7-hydroxy-1,4-benzodioxin-2-yl)methyl]amino]propoxy]-2H-1-benzopyran-2-one], in experiment [2], the “Dopa Accumulation (% inhib. @ 10 mg/kg, sc), limbic (L)” value is on record as 45%.

As to `O=C1CC2(CCCC2)CC(=O)N1CCCCNCC1COc2ccccc2O1` (stereo not drawn) [MDL 72832, 8-[4-(1,4-benzodioxan-2-ylmethylamino)butyl]-8-azaspiro[4.5]decane-7,9-dione], the “selectivity as ligand for 5-HT1A receptors (in words)” value in the experiment on 5-HT1A receptor (Fozard et al. 1987) was “selective and stereospecific”.

`O=C1CC2(CCCC2)CC(=O)N1CCCCN1CCN(c2ncccn2)CC1` [buspirone]: the “affinity for the 5-HT1A serotonin receptor subtype (in words)” value with 5-HT1A receptor (standard for anxiolytic activity) was “potent affinity”.
